# From the pKa sets of Baltruschat and Czodrowski (2020)
# Details: acidic group
row,Compound,pKa
1,Cc1cccc(=O)c(O)c1,7.26
2,O=c1cc(-c2ccccc2)oc2ccc(O)cc12,9.09
3,[NH3+]CCNC(=S)S,2
4,Nc1ccc(S(=O)(=O)Nc2nccs2)cc1,7.25
5,O=C(O)c1ccccc1I,2.93
6,O=C(O)/C(Cl)=N/O,1.5
7,O=S1(=O)N=CNc2ncccc21,7.03
8,NC(=O)[C@@H](N)CSSC[C@H](N)C(N)=O,6.41
9,C/C(=N\O)C(=O)NO,7.74
10,C=C(C)C1=C(O)CC(C)CC1 (stereo not drawn),11.9
11,Nn1cnnc1,11.8
12,O=c1ccc2ccc(O)c(O)c2o1,6.9
13,Cc1nc(-c2ccccc2[S-])[nH]c1C,9
14,NCc1ccccc1S(N)(=O)=O,10.1
15,CC(=O)C1C(=O)OC(=O)C=C1C (stereo not drawn),1.34
16,Cc1c[n+]([C@@H]2C[C@@H](O)[C@H](CO)O2)c(O)nc1N,4.4
17,Cc1ccc2ccccc2c1C(=O)O,3.11
18,O=[N+]([O-])c1ccccc1B(O)O,8.52
19,CC1=CC(=O)C=C(C)C1=NO,8.04
20,C[NH+](C)CCNC(=O)/C=N/O,8.17
21,C/C(=C(/S)CCO)N(C=O)Cc1cnc(C)nc1N,11.4
22,CCCCc1cc(Cl)cc(Cl)c1O,8.1
23,O=C([O-])c1cccc([N+](=O)[O-])c1O,10.3
24,O=C(O)C(=O)C(c1ccccc1)c1ccccc1,2.78
25,Cc1cc(/N=N/c2nc3ccccc3s2)c(O)c2ncccc12,9.6

row,Compound,pKa
1,O=C1CNC(=O)N1,9.12
2,Nc1ccc(-c2ccc(/N=C/c3ccccc3O)cc2)cc1,11.1
3,O=C(O)c1cccc(-c2nnn[nH]2)c1,3.74
4,COc1cc(S(C)=O)ccc1-c1nc2cnncc2[nH]1 (stereo not drawn),8.49
5,C/C(C#[N+][O-])=N\O,8.8
6,Oc1nc2cc3ccccc3cc2[nH]1,11.6
7,Cc1ccc([N+](=O)[O-])c(C(=O)O)c1,2.55
8,O=C(O)[C@]12C[NH2+]CC[C@H]1O2,2.63
9,Cc1n[nH]c2c1c(=O)n(C)c(=O)n2C,9.83
10,CCCCCC(=O)O,4.85
11,Cc1ccc(S(=O)(=O)NCC[NH+](CC(=O)O)CC(=O)O)cc1,2.15
12,Sc1ccc2ncccc2c1,6.5
13,CC(C)=CC[C@@H]1C(=O)C(C(=O)CC(C)C)=C(O)[C@H]1O,2.35
14,O/N=C/C=C/c1ccccc1,10.6
15,Cc1ccc(C(=O)/C=C/C(=O)O)cc1,3.44
16,O=C(O)C(c1ccc(-c2ccccc2)cc1)C(O)C1CCCCC1 (stereo not drawn),4.19
17,O=C([O-])C[NH+](CCNS(=O)(=O)c1ccc(CCBr)cc1)CC(=O)[O-],7.75
18,O=C([O-])CCc1nc2ccccc2[nH]1,13.1
19,O=C1/C(=N/O)C=Cc2ccccc21,7.52
20,N#CC(CCCCC(=O)O)c1ccccc1 (stereo not drawn),4.75
21,CC(=O)CCC(=O)O,4.63
22,NC1=[NH+][C@@H](CC(=O)O)C(=O)N1CCCC([NH3+])C(=O)[O-] (stereo partly drawn),3.26
23,C#CCCC(=O)O,4.2
24,Nc1nc2nc[n-]c2c(N)[n+]1[O-],12
25,Cc1cccc(NS(=O)(=O)c2ccccc2)c1,8.48

row,Compound,pKa
1,O=C(O)CSc1ccccc1,3.52
2,CC(C[Si](C)(C)CCCCl)C(=O)O (stereo not drawn),5.05
3,CSc1nc2ncncc2[nH]1,7.67
4,Cc1coc(C)c1C(=O)O,4.55
5,C[n+]1ccccc1S,-1.42
6,Cc1ccc([Se](=O)O)cc1,4.88
7,C[N+]1(CCCC(=O)O)CCCCC1,4.11
8,CC(=O)C(C)C(=O)c1ccccc1 (stereo not drawn),11.1
9,O=C(O)CC1CCCCC1,4.8
10,Cc1cc(C)c([N+](=O)[O-])c(C)c1O,8.98
11,CCC[NH2+]CC(=O)O,2.31
12,O=[N+]([O-])c1ccc2c(c1)Cc1cc(O)ccc1-2,9.01
13,CCn1nnnc1CC(=O)O,2.85
14,CC(=O)NS(=O)(=O)c1ccsc1C(=O)O,3.1
15,CCCCCCCCCCCCCCCCCC(=O)O,5.01
16,O=C(O)c1cccc(F)c1,3.9
17,O=C(O)c1ccc(Cl)s1,3.41
18,Oc1ccc(Cl)cc1C[NH+]1CCCC1,8.3
19,C[N+](C)(C)CCc1ccccc1O,9.57
20,C=CCc1ccc(O)c(OC)c1,10
21,Cc1nnnn1CC(=O)O,2.16
22,O=C1NC(=O)/C(=C/c2ccccc2)N1,8.6
23,Cc1ccc(/C=C/C(=O)O)cc1,4.56
24,O=C(c1ccccc1)c1cccc(O)c1,9

# Same assay, conditions: basic group
row,Compound,pKa
1,CCCCNCC/C(N)=N/O,9.6
2,Nc1ccc2[nH+]cccc2c1,1.63
3,CCCCN,10.7
4,O=C([O-])[C@@H](NCCN[C@@H](C(=O)[O-])c1ccccc1[O-])c1ccccc1[O-],11.9
5,CCc1nc2ccccc2[nH]1,6.2
6,NNC(=O)C[NH3+],2.38
7,CC[NH+](CC)CCC(C)Nc1c2ccc(Cl)cc2nc2ccc(OC)cc12 (stereo not drawn),7.2
8,CN(C)c1ccc([NH+](C)C)cc1,2.5
9,Nc1ccc(S(=O)(=O)Nc2nccs2)cc1,2.35
10,O=C([O-])CN(CC(=O)[O-])Cc1ccccc1[O-],11.8
11,CN=C1C(C)(C)c2ccccc2C1(C)C,7
12,[Se-]c1ncnc2nc[nH]c12,7.33
13,C#CCN,8.19
14,C[n+]1c([O-])ccnc1[O-],9.94
15,N[C@@H](Cc1c[nH]cn1)C(=O)N[C@@H](Cc1c[nH]cn1)C(=O)[O-],7.8
16,N/C(CC/C(N)=[NH+]/O)=N\O,3.11
17,COc1ccc2c3c1O[C@H]1CCC[C@H]4[C@@H]([C@@H]2O)N(C)CC[C@]314,9.41
18,Nn1cnnc1,2.53
19,Brc1ccc(-c2ncc(-c3ccccc3)o2)cc1,0.4
20,OCCCc1cccnc1,5.57
21,CCOCCn1c(CN2CCC[NH+](CCCCn3cc(C(=O)[O-])cn3)CC2)nc2ccccc21,4.8
22,NCc1ccccc1S(N)(=O)=O,8.53
23,C#CCCN,9.23
24,[O-]c1cc2ccccc2nn1,8.61
25,Cc1cnc2c(ccc3c(C)c(C)cnc32)c1C,6.31

row,Compound,pKa
1,COc1ccc2c(c1)C([P+](c1ccccc1)(c1ccccc1)c1ccccc1)c1ccccc1-2 (stereo not drawn),9.09
2,NCCCCCC#CC#CCCC(=O)[O-],10.7
3,Cc1nc2c(n1C)C(=O)c1ncnc([O-])c1C2=O,6.15
4,C/C(=C(/S)CCO)N(C=O)Cc1cnc(C)nc1N,4.19
5,N[C@@H](Cc1ccccc1)C(=O)[O-],9.14
6,[NH3+]CCN1CCOCC1,4.84
7,O=[N+]([O-])c1ccc(/C=C/c2nnnn2-c2ccc([N+](=O)[O-])cc2)cc1,-3.15
8,CCN(CC1CO1)CC1CO1 (stereo not drawn),6.91
9,CC(C)CNc1ccccc1,4.84
10,c1ccc2[nH+]c(-c3ccncc3)[nH]c2c1,4.47
11,Nc1ccc(-c2ccc(/N=C/c3ccccc3O)cc2)cc1,7.68
12,COc1cc(S(C)=O)ccc1-c1nc2cnncc2[nH]1 (stereo not drawn),3.81
13,CC/N=C1\C=C(NCC)CC(C)(C)C1,12.1
14,CCCCCCCCCCCCCCCCN(CCCCCCCCCCCCCCCC)C(=O)[C@H](C)NC(=O)[C@H](Cc1c[nH]cn1)NC(=O)CCCCC[N+](C)(C)C.[Br-],7.2
15,c1ccc(-c2ncc[nH]2)cc1,6.39
16,OCn1cnc2ccccc21,5.44
17,COc1ccc2[nH]cc(CC(C)N)c2c1 (stereo not drawn),10.3
18,COc1ccc(-c2ncc(-c3ccc(C)cc3)o2)cc1,1.34
19,[S-]c1ncnc2ncncc12,6.23
20,CC1(C)[C@@H](N)[C@@H]1N,8.96
21,C=CCN(CC(C)O)CC(C)O (stereo not drawn),8.2
22,O=C([O-])C[NH+](CC(=O)[O-])Cc1nc2ccccc2[nH]1,3.95
23,COc1cc2c(OC)ncnc2c(OC)c1OC,3.34
24,C(=C\C[NH+]1CCCCC1)/CN1CCCCC1,7.9
25,NNC(=O)[C@H](Cc1c[nH]cn1)NC(=O)OCc1ccccc1,6.1

row,Compound,pKa
1,OCCN1CC[NH2+]CC1,5.47
2,CCCCNCCN,10.3
3,[SH2+]c1ccc2ncccc2c1,3.95
4,O=C([O-])CCc1nc2ccccc2[nH]1,5.7
5,CN[C@@H]1C[C@@H]1[NH2+]C,3.56
6,O=C([O-])c1nc[nH]c1C(=O)[O-],8.49
7,COCCNc1ccc(C)cc1,4.64
8,C[C@@H]1CNC[C@H](C)[NH2+]1,5.4
9,O=[N+]([O-])c1ccc(-n2nnnc2/C=C/c2ccc(Cl)cc2)cc1,-3.05
10,CCOCCn1c(N2CCCN(CCCCn3cc(C(=O)[O-])cn3)CC2)nc2ccccc21,8.5
11,Cn1ccc2ccc3cccnc3c21,4.36
12,Cc1cc([S-])[nH+]cn1,1.8
13,c1cc(N2CCOCC2)ccc1N1CCOCC1,4.2
14,NCc1cccc(O)c1,9.06
15,CN(C)c1ccc(/C=C/c2ccncc2)cc1,6.25
16,CN1C2CCC(C2)N1C,6.89
17,NCCCCCN,10.8
18,CSc1nc2ncncc2[nH]1,2.95
19,C#CC(C)(C)N(C)C(C)C,8.7
20,NC(=S)c1ccccc1,-3.2
21,CC1CCCC(C(=O)[O-])N1 (stereo not drawn),10.4
22,Brc1cnc2c(ccc3cc(Br)cnc32)c1,3.9
23,O=[PH]([O-])C([NH2+]Cc1ccncc1)c1ccccc1O (stereo not drawn),3.25
24,C[C@@H]1CCN2CC[C@H](O)[C@H]12,10.9
25,CSc1cc(C)ncn1,3.25

row,Compound,pKa
1,c1ccc(CSc2ccncc2)cc1,5.41
2,CN(C)CCCN,10
3,NCCc1c[nH]cn1,9.87
4,C#C[C@]1(O)C[C@@H](C)N[C@H]2CCCC[C@@H]21,9.29
5,COC(=O)C1CN2CCC1CC2 (stereo not drawn),9.4
6,C[C@@H]1CCC[C@H](C)N1,11
7,Cc1ccccc1/C(=N/CCC[NH+](C)C)c1ccccc1,4.29
8,CCCCN1CCCCC1,10.5
9,OCC1CN2CCC1CC2 (stereo not drawn),10.6
10,COc1ccc(CON)cc1,4.42
11,C1CN(CCN2CCOCC2)CCO1,6.65
12,OCc1ccncc1,5.41
13,[O-]c1ncnc2[nH]cnc12,8.71
14,NC(=O)CCCc1ccncc1,5.64
15,NNCCc1ccccc1,7.25
16,Cc1ccc(C)c(N)c1,4.47
17,COc1ccnc2ccccc12,6.45
18,COc1cncnc1[O-],8.6
19,CC1=Nc2ccccc2CO1,4.64
20,Cc1cc(O)cc(O)c1C(=N)c1ccccc1,6.75
21,Cc1cc(C)c2nc(C)cc(N)c2c1,10.4
22,CN(CO)c1ccc(Cl)cc1,3.02
23,CCOC(=O)C(C)N (stereo not drawn),7.8
24,Cc1nc(-c2ccccc2)[nH]c1C,7
